molecular target: T1, human CD73 (Homo sapiens, UniProt P21589); assay: Inhibition of Ecto-5′-nucleotidase (CD73) activity in CHO-CD73 cells, phosphate release from AMP; type: cell-based; conditions: CHO-K1 cells stably transfected with human CD73; 25 μM AMP; 50 minutes, 37° C.; read-out: Potency: CD73 IC50
T1 sequence (P21589 27-549): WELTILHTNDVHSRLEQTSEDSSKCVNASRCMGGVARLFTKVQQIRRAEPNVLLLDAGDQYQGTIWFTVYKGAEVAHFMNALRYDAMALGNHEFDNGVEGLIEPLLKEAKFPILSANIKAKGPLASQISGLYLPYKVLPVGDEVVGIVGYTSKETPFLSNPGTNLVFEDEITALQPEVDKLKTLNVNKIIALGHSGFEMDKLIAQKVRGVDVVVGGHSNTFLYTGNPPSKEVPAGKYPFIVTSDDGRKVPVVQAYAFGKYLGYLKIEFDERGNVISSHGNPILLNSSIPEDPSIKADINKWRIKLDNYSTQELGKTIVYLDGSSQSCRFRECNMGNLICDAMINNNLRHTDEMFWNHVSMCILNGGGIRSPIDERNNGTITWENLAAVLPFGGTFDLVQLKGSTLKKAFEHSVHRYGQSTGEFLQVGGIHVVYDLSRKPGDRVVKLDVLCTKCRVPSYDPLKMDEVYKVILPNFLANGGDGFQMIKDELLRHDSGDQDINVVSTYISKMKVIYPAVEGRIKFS

| IC50 | Compound |
| --- | --- |
| < 100 nM | Oc1cccc(-n2nnc3c(Cl)cc(-c4ccnn4Cc4ccccc4)cc32)c1 [Example 9, 3-[6-(1-Benzyl-1H-pyrazol-5-yl)-4-chloro-1H-1,2,3-benzotriazol-1-yl]phenol] |
| < 100 nM | Clc1ccc(Cn2nccc2-c2cc(Cl)c3nnn(-c4ccc5cn[nH]c5c4)c3c2)cc1 [Example 44] |
| 100 to 1000 nM | Clc1cc(-c2ccnn2Cc2ccccn2)cc2c1nnn2-c1ccc2cn[nH]c2c1 [Example 45] |
| < 100 nM | FC(F)(F)Oc1ccc(Cn2nccc2-c2cc(Cl)c3nnn(-c4ccc5cn[nH]c5c4)c3c2)cc1 [Example 46] |
| > 1000 nM | c1cc(-c2ccc3nnn(-c4ccc5cn[nH]c5c4)c3c2)n(CC2CC2)n1 [Example 47] |
| > 1000 nM | N#Cc1cccc(Cn2nccc2-c2ccc3nnn(-c4ccc5cn[nH]c5c4)c3c2)c1 [Example 48] |
| 100 to 1000 nM | CC(C)c1ccc(Cn2nccc2-c2cc(Cl)c3nnn(-c4ccc5cn[nH]c5c4)c3c2)cc1 [Example 51] |
| < 100 nM | Clc1ccccc1Cn1nccc1-c1cc(Cl)c2nnn(-c3ccc4cn[nH]c4c3)c2c1 [Example 52] |
| 100 to 1000 nM | FC(F)(F)Oc1ccccc1Cn1nccc1-c1cc(Cl)c2nnn(-c3ccc4cn[nH]c4c3)c2c1 [Example 53] |
| < 100 nM | Cc1ccc(Cn2nccc2-c2cc(Cl)c3nnn(-c4ccc5cn[nH]c5c4)c3c2)cc1 [Example 54] |
| 100 to 1000 nM | COc1ccc(Cn2nccc2-c2ccc3nnn(-c4ccc5cn[nH]c5c4)c3c2)cc1 [Example 55] |
| 100 to 1000 nM | Cc1cnn(Cc2ccc(Cl)cc2)c1-c1cc(Cl)c2nnn(-c3ccc4cn[nH]c4c3)c2c1 [Example 56] |
| < 100 nM | Fc1cc(Cn2nccc2-c2ccc3nnn(-c4ccc5cn[nH]c5c4)c3c2)ccc1Cl [Example 58] |
| < 100 nM | Clc1ccc(Cn2nccc2-c2cc(Cl)c3nnn(-c4ccc5cn[nH]c5c4)c3c2)c(Cl)c1 [Example 59] |
| > 1000 nM | Clc1cccnc1Cn1nccc1-c1cc(Cl)c2nnn(-c3ccc4cn[nH]c4c3)c2c1 [Example 61] |
| < 100 nM | FC(F)c1ccc(Cn2nccc2-c2cc(Cl)c3nnn(-c4ccc5cn[nH]c5c4)c3c2)cc1 [Example 63] |
| < 100 nM | Fc1cc(-c2ccnn2Cc2ccc(Cl)cc2)cc2c1nnn2-c1ccc2cn[nH]c2c1 [Example 64] |
| 100 to 1000 nM | Fc1cc(-c2ccnn2Cc2ccccc2Cl)cc2c1nnn2-c1ccc2cn[nH]c2c1 [Example 65] |
| < 100 nM | CCc1ccc(Cn2nccc2-c2cc(Cl)c3nnn(-c4ccc5cn[nH]c5c4)c3c2)cc1 [Example 68] |
| 100 to 1000 nM | FC(F)(F)c1ccc(Cn2nccc2-c2cc(Cl)c3nnn(-c4ccc5cn[nH]c5c4)c3c2)cc1 [Example 69] |
| 100 to 1000 nM | CC(c1ccccc1)n1nccc1-c1cc(Cl)c2nnn(-c3ccc4cn[nH]c4c3)c2c1 (centres unmarked) [Example 70] |
| > 1000 nM | CC(c1ccccc1)n1nccc1-c1cc(F)c2nnn(-c3ccc4cn[nH]c4c3)c2c1 (centres unmarked) [Example 71] |
| > 1000 nM | CC(c1ccccc1)n1nccc1-c1ccc2nnn(-c3ccc4cn[nH]c4c3)c2c1 (centres unmarked) [Example 72] |
| < 100 nM | Fc1ccc(Cn2nccc2-c2cc(Cl)c3nnn(-c4ccc5cn[nH]c5c4)c3c2)nc1 [Example 73] |

| IC50 | Compound |
| --- | --- |
| 100 to 1000 nM | Cc1cnc(Cn2nccc2-c2cc(Cl)c3nnn(-c4ccc5cn[nH]c5c4)c3c2)c(F)c1 [Example 74] |
| < 100 nM | Fc1cc(-c2ccnn2Cc2ccc(Cl)cc2Cl)cc2c1nnn2-c1ccc2cn[nH]c2c1 [Example 75] |
| < 100 nM | Fc1cc(Cl)ccc1Cn1nccc1-c1cc(F)c2nnn(-c3ccc4cn[nH]c4c3)c2c1 [Example 76] |
| 100 to 1000 nM | Clc1cnc(Cn2nccc2-c2ccc3nnn(-c4ccc5cn[nH]c5c4)c3c2)c(Cl)c1 [Example 79] |
| 100 to 1000 nM | Clc1cnc(Cn2nccc2-c2cc(Cl)c3nnn(-c4ccc5cn[nH]c5c4)c3c2)c(Cl)c1 [Example 80] |
| 100 to 1000 nM | Fc1cnc(Cn2nccc2-c2cc(Cl)c3nnn(-c4ccc5cn[nH]c5c4)c3c2)c(Cl)c1 [Example 81] |
| < 100 nM | Fc1cc(Cn2nccc2-c2cc(Cl)c3nnn(-c4ccc5cn[nH]c5c4)c3c2)ccc1Cl [Example 82] |
| < 100 nM | Fc1cc(Cl)ccc1Cn1nccc1-c1cc(Cl)c2nnn(-c3ccc4cn[nH]c4c3)c2c1 [Example 83] |
| 100 to 1000 nM | Cc1ccc(Cn2nccc2-c2cc(Cl)c3nnn(-c4ccc5cn[nH]c5c4)c3c2)nc1 [Example 84] |
| 100 to 1000 nM | Fc1cc(-c2ccnn2Cc2ccccn2)cc2c1nnn2-c1ccc2cn[nH]c2c1 [Example 85] |
| 100 to 1000 nM | Cc1ccc(Cn2nccc2-c2cc(F)c3nnn(-c4ccc5cn[nH]c5c4)c3c2)nc1 [Example 86] |
| > 1000 nM | Cc1cnc(Cn2nccc2-c2cc(F)c3nnn(-c4ccc5cn[nH]c5c4)c3c2)c(F)c1 [Example 87] |
| > 1000 nM | Cc1cc(F)cnc1Cn1nccc1-c1cc(F)c2nnn(-c3ccc4cn[nH]c4c3)c2c1 [Example 88] |
| < 100 nM | Cc1ccc(Cn2nccc2-c2cc(Cl)c3nnn(-c4ccc5cn[nH]c5c4)c3c2)c(Cl)c1 [Example 89] |
| 100 to 1000 nM | Brc1ccc(Cn2nccc2-c2ccc3nnn(-c4ccc5cn[nH]c5c4)c3c2)cc1 [Example 90] |
| 100 to 1000 nM | Fc1cc(-c2ccnn2Cc2ccc(C(F)F)cc2)cc2c1nnn2-c1ccc2cn[nH]c2c1 [Example 91] |
| 100 to 1000 nM | CC(c1ccc(Br)cn1)n1nccc1-c1ccc2nnn(-c3ccc4cn[nH]c4c3)c2c1 (centres unmarked) [Example 92] |
| > 1000 nM | c1cc(-c2ccc3nnn(-c4ccc5cn[nH]c5c4)c3c2)n(CC2CCCCO2)n1 (centres unmarked) [Example 93] |
| 100 to 1000 nM | Clc1cc(-c2ccnn2CC2CCCCO2)cc2c1nnn2-c1ccc2cn[nH]c2c1 (centres unmarked) [Example 94] |
| < 100 nM | Cc1cc(Cl)ccc1Cn1nccc1-c1cc(F)c2nnn(-c3ccc4cn[nH]c4c3)c2c1 [Example 95] |
| < 100 nM | Cc1cc(Cl)ccc1Cn1nccc1-c1cc(Cl)c2nnn(-c3ccc4cn[nH]c4c3)c2c1 [Example 96] |
| < 100 nM | Cc1ccc(Cn2nccc2-c2cc(F)c3nnn(-c4ccc5cn[nH]c5c4)c3c2)c(Cl)c1 [Example 97] |
| > 1000 nM | Fc1cccnc1Cn1nccc1-c1ccc2nnn(-c3ccc4cn[nH]c4c3)c2c1 [Example 98] |
| > 1000 nM | CC(c1ccccn1)n1nccc1-c1cc(Cl)c2nnn(-c3ccc4cn[nH]c4c3)c2c1 (centres unmarked) [Example 99] |

| IC50 | Compound |
| --- | --- |
| 100 to 1000 nM | Cc1ccc(Cn2nccc2-c2cc(F)c3nnn(-c4ccc5cn[nH]c5c4)c3c2)cc1 [Example 100] |
| < 100 nM | Fc1cc(-c2ccnn2Cc2ccc(Cl)cn2)cc2c1nnn2-c1ccc2cn[nH]c2c1 [Example 101] |
| 100 to 1000 nM | FC(F)(F)c1ccccc1Cn1nccc1-c1cc(Cl)c2nnn(-c3ccc4cn[nH]c4c3)c2c1 [Example 102] |
| 100 to 1000 nM | Fc1cc(-c2ccnn2Cc2ccccc2C(F)(F)F)cc2c1nnn2-c1ccc2cn[nH]c2c1 [Example 103] |
| 100 to 1000 nM | Fc1cc(Cl)cnc1Cn1nccc1-c1cc(Cl)c2nnn(-c3ccc4cn[nH]c4c3)c2c1 [Example 104] |
| 100 to 1000 nM | N#Cc1ccc(Cn2nccc2-c2cc(Cl)c3nnn(-c4ccc5cn[nH]c5c4)c3c2)nc1 [Example 106] |
| 100 to 1000 nM | N#Cc1ccc(Cn2nccc2-c2cc(F)c3nnn(-c4ccc5cn[nH]c5c4)c3c2)nc1 [Example 107] |
| 100 to 1000 nM | FC(F)(F)c1ccc(Cn2nccc2-c2cc(Cl)c3nnn(-c4ccc5cn[nH]c5c4)c3c2)nc1 [Example 108] |
| 100 to 1000 nM | Clc1ccc(Cn2nccc2-c2cc(Cl)c3nnn(-c4ccc5cn[nH]c5c4)c3c2)c(Br)c1 [Example 109] |
| 100 to 1000 nM | FC(F)(F)c1ccc(Cn2nccc2-c2cc(Cl)c3nnn(-c4ccc5cn[nH]c5c4)c3c2)c(Cl)c1 [Example 110] |
| < 100 nM | N#Cc1ccc(Cn2nccc2-c2cc(Cl)c3nnn(-c4ccc5cn[nH]c5c4)c3c2)c(F)c1 [Example 112] |
| 100 to 1000 nM | N#Cc1ccc(Cn2nccc2-c2cc(C#N)c3nnn(-c4ccc5cn[nH]c5c4)c3c2)cc1 [Example 114] |
| 100 to 1000 nM | CC(c1ccc(C#N)cc1)n1nccc1-c1ccc2nnn(-c3ccc4cn[nH]c4c3)c2c1 (centres unmarked) [Example 115] |
| 100 to 1000 nM | CC(c1ccc(C#N)cc1)n1nccc1-c1cc(F)c2nnn(-c3ccc4cn[nH]c4c3)c2c1 (centres unmarked) [Example 116] |
| 100 to 1000 nM | CC(c1ccc(C#N)cc1)n1nccc1-c1cc(Cl)c2nnn(-c3ccc4cn[nH]c4c3)c2c1 (centres unmarked) [Example 117] |
| > 1000 nM | CC(c1ccc(C(N)=O)cc1)n1nccc1-c1ccc2nnn(-c3ccc4cn[nH]c4c3)c2c1 (centres unmarked) [Example 118] |
| 100 to 1000 nM | c1cc(-c2ccc3nnn(-c4ccc5cn[nH]c5c4)c3c2)n(Cc2ccc(C3CC3)cc2)n1 [Example 119] |
| > 1000 nM | N#Cc1ccc(Cn2nccc2-c2cc(F)c3nnn(-c4ccc5nc[nH]c5c4)c3c2)cc1 [Example 120] |
| > 1000 nM | FC1(F)CN(CCn2nccc2-c2ccc3nnn(-c4ccc5cn[nH]c5c4)c3c2)C1 [Example 121] |
| 100 to 1000 nM | FC(F)(F)c1cc(-c2ccnn2Cc2ccc(Cl)cc2Cl)cc2c1nnn2-c1ccc2cn[nH]c2c1 [Example 122] |
| 100 to 1000 nM | N#Cc1ccc(Cn2nccc2-c2cc(C(F)(F)F)c3nnn(-c4ccc5cn[nH]c5c4)c3c2)cc1 [Example 123] |
| 100 to 1000 nM | Clc1cc(-c2ccnn2CCc2ccccc2)cc2c1nnn2-c1ccc2cn[nH]c2c1 [Example 124] |
| 100 to 1000 nM | N#Cc1ccc(Cn2nccc2-c2cc(C(F)(F)F)c3nnn(-c4ccc5cn[nH]c5c4)c3c2)nc1 [Example 125] |

Source: patent US11931343B2 (ARCUS BIOSCIENCES, INC., priority 2018, dated 2024)
